# Measured values published in patent US8378117B2 (priority 2005, dated 2013).
# Where two headings read alike, the source gives them in different places.
# Columns and labels:
# [1] = target: T1, CB2 receptor (Homo sapiens, UniProt P34972); test: Binding assay for CB2 agonists or inverse agonists (SK-N-MC membranes, [3H]-CP-55,940); settings: for inhibition at 1 µM: read-out: CB2 receptor binding percent inhibition
# T1 construct: expressed in transfected cells
# Protocol: (§1) The human CB1 and CB2 receptors were stably expressed in SK-N-MC cells transfected with pcDNA3 CB-1 (human) or pcDNA3 CB-2 (human). The cells were grown in T-180 cell culture flasks under standard cell culture conditions at 37° C. in a 5% CO2 atmosphere. The cells were harvested by trysinization and homogenized in a homogenization buffer (10 mM Tris, 0.2 mM MgCl2, 5 mM KCl, with protease inhibitors aprotinin, leupeptin, pepstatin A and bacitracin) and centrifuged (2000 g). The supernatant was then centrifuged in 2M sucrose (31,300 g) to produce a semi-purified membrane pellet. The pellet was resuspended in homogenization and stored at −80° C.
# On the day of the assay, the pellet was thawed on ice and diluted in assay buffer (50 mM Tris-HCl, 5 mM MgCl2, 2.5 mM EDTA, 0.5 mg/mL fatty acid free bovine serum aldumin, pH 7.5). […] The plate was covered and incubated for 90 minutes at 30° C. The contents were then aspirated onto a Packard Unifilter GF/C filter bottom plate prewet with 0.5% polyethyleneimine. The wells of the polypropylene plate were rinsed and aspirated seven times with a 0.9% saline-0.5% Tween 20 solution. The Unifilter plate was dried, a scintillation cocktail was added to each well and the counts representing binding were quantitated in a TopCount scintillation counter.
# (§2) For compounds tested, an IC50 binding value was obtained from percent inhibition studies in which various test concentrations were used. The binding value was calculated by linear regression.
# [2] = target: T2, CB1 receptor (Homo sapiens, UniProt P21554); test: Binding assay for CB1 agonists or inverse agonists (SK-N-MC membranes, [3H]-CP-55,940); settings: for IC50: Cannabinoid CB1 Receptor Binding IC50, calculated by linear regression from percent inhibition at various test concentrations
# T2 construct: expressed in transfected cells
# T2 sequence (P21554 whole entry): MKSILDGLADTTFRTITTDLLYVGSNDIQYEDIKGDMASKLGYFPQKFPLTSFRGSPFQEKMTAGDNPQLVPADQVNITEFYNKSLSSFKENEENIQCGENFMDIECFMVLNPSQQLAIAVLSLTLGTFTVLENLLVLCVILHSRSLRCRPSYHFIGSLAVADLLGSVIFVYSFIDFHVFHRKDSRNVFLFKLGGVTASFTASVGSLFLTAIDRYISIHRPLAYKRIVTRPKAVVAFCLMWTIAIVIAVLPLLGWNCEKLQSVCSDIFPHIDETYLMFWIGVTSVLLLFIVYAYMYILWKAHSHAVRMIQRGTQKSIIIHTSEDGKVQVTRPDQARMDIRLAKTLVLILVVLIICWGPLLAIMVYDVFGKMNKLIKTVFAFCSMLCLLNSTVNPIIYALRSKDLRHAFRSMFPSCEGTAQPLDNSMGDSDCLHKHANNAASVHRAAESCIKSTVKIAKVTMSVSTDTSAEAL
# Protocol: as §1
# On the day of the assay, the pellet was thawed on ice and diluted in assay buffer (50 mM Tris-HCl, 5 mM MgCl2, 2.5 mM EDTA, 0.5 mg/mL fatty acid free bovine serum aldumin, pH 7.5). The diluted membrane pellet was added with buffer, either a test compound or vehicle standard and the radioligand […] ([…]) to the wells of a 96-well polypropylene plate. Non-specific binding was measured in wells containing WIN 55,212 (10 uM). The plate was covered and incubated for 90 minutes at 30° C. The contents were then aspirated onto a Packard Unifilter GF/C filter bottom plate prewet with 0.5% polyethyleneimine. The wells of the polypropylene plate were rinsed and aspirated seven times with a 0.9% saline-0.5% Tween 20 solution. The Unifilter plate was dried, a scintillation cocktail was added to each well and the counts representing binding were quantitated in a TopCount scintillation counter.
# as §2
# [3] = read-out: CB1 receptor binding percent inhibition, test concentration 1 μM (footnote 1)
# [4] = calculated by linear regression from percent inhibition at various test concentrations, read-out: Cannabinoid CB2 Receptor Binding IC50
# [5] = test concentration 1 μM (footnote 1)
# T1 sequence (P34972 whole entry): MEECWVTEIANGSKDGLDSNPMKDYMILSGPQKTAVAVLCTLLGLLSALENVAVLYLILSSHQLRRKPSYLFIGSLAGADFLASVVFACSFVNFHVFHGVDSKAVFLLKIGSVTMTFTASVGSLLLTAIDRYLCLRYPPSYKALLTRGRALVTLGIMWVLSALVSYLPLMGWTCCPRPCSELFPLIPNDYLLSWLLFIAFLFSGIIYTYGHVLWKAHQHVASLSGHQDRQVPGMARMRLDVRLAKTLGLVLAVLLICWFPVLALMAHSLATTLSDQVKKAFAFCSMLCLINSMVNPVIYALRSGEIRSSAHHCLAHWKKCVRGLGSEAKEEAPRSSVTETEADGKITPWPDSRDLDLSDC
Structure (SMILES),CB2 receptor binding percent inhibition ([1]; test concentration not stated),"inhibition at 1 µM [2, 3]",also measured
"O=C(NC12CC3CC(CC(C3)C1)C2)c1nn(C2CCCCC2)c2c1CCCCC2Cc1ccc(Cl)cc1 (centres unmarked) [Cpd 20, 8-(4-chloro-benzyl)-1-cyclohexyl-1,4,5,6,7,8-hexahydro-cycloheptapyrazole-3-carboxylic acid adamantan-1-ylamide]",28%,4%,
"O=C(NC12CC3CC(CC(C3)C1)C2)c1nn(C2CCCCC2)c2c1CCCCC2Cc1ccccc1Cl (centres unmarked) [Cpd 21, 8-(2-chloro-benzyl)-1-cyclohexyl-1,4,5,6,7,8-hexahydro-cycloheptapyrazole-3-carboxylic acid adamantan-1-ylamide]",26%,32%,
"O=C(NC12CC3CC(CC(C3)C1)C2)c1nn(-c2ccc(Cl)cc2Cl)c2c1CCCCC2Cc1cccc(Cl)c1 (centres unmarked) [Cpd 22, 8-(3-chloro-benzyl)-1-(2,4-dichloro-phenyl)-1,4,5,6,7,8-hexahydro-cycloheptapyrazole-3-carboxylic acid adamantan-1-ylamide]",25%,58%,
"O=C(NC1CCC1)c1nn(C2CCCCC2)c2c1CCCCC2Cc1ccccc1Cl (centres unmarked) [Cpd 23, 8-(2-chloro-benzyl)-1-cyclohexyl-1,4,5,6,7,8-hexahydro-cycloheptapyrazole-3-carboxylic acid cyclobutylamide]",24%,0%,
"O=C(NC1CCC1)c1nn(-c2ccc(Cl)cc2Cl)c2c1CCCCC2Cc1cccc(Cl)c1 (centres unmarked) [Cpd 24, 8-(3-chloro-benzyl)-1-(2,4-dichloro-phenyl)-1,4,5,6,7,8-hexahydro-cycloheptapyrazole-3-carboxylic acid cyclobutylamide]",0%,28%,
"O=C(NN1CCCCC1)c1nn(-c2ccc(Cl)cc2Cl)c2c1CCCCC2Cc1ccc(Cl)cc1 (centres unmarked) [Cpd 27, 8-(4-chloro-benzyl)-1-(2,4-dichloro-phenyl)-1,4,5,6,7,8-hexahydro-cycloheptapyrazole-3-carboxylic acid piperidin-1-ylamide]",0%,0%,
"O=C(NC1CCC1)c1nn(Cc2ccc(Cl)cc2)c2c1CCCCC2Cc1cccc(Cl)c1 (centres unmarked) [Cpd 29, 1-(4-chloro-benzyl)-8-(3-chloro-benzyl)-1,4,5,6,7,8-hexahydro-cycloheptapyrazole-3-carboxylic acid cyclobutylamide]",18%,13%,
"O=C(NC1CCC1)c1nn(Cc2ccc(Cl)cc2)c2c1CCCCC2Cc1ccc(Cl)cc1 (centres unmarked) [Cpd 30, 1,8-bis-(4-chloro-benzyl)-1,4,5,6,7,8-hexahydro-cycloheptapyrazole-3-carboxylic acid cyclobutylamide]",,28%,"IC50 [1, 4]: 600 nM; inhibition at 1 µM [1, 5]: 65%"
"O=C(NC1CC1)c1nn(C2CCCCC2)c2c1CCCCC2Cc1ccccc1Cl (centres unmarked) [Cpd 31, 8-(2-chloro-benzyl)-1-cyclohexyl-1,4,5,6,7,8-hexahydro-cycloheptapyrazole-3-carboxylic acid cyclopropylamide]",35%,0%,
"O=C(NC1CC1)c1nn(C2CCCCC2)c2c1CCCCC2Cc1cccc(Cl)c1 (centres unmarked) [Cpd 32, 8-(3-chloro-benzyl)-1-cyclohexyl-1,4,5,6,7,8-hexahydro-cycloheptapyrazole-3-carboxylic acid cyclopropylamide]",0%,0%,
"O=C(NC1CC1)c1nn(C2CCCCC2)c2c1CCCCC2Cc1ccc(Cl)cc1 (centres unmarked) [Cpd 33, 8-(4-chloro-benzyl)-1-cyclohexyl-1,4,5,6,7,8-hexahydro-cycloheptapyrazole-3-carboxylic acid cyclopropylamide]",0%,0%,
"O=C(NC1CC1)c1nn(Cc2ccc(Cl)cc2)c2c1CCCCC2Cc1ccc(Cl)cc1 (centres unmarked) [Cpd 34, 1,8-bis-(4-chloro-benzyl)-1,4,5,6,7,8-hexahydro-cycloheptapyrazole-3-carboxylic acid cyclopropylamide]",0%,0%,
"O=C(NC1CC1)c1nn(Cc2ccc(Cl)cc2)c2c1CCCCC2Cc1cccc(Cl)c1 (centres unmarked) [Cpd 35, 1-(4-chloro-benzyl)-8-(3-chloro-benzyl)-1,4,5,6,7,8-hexahydro-cycloheptapyrazole-3-carboxylic acid cyclopropylamide]",36%,22%,
"O=C(NC1CCC1)c1nn(C2CCCCC2)c2c1CCCCC2Cc1cccc(Cl)c1 (centres unmarked) [Cpd 36, 8-(3-chloro-benzyl)-1-cyclohexyl-1,4,5,6,7,8-hexahydro-cycloheptapyrazole-3-carboxylic acid cyclobutylamide]",0%,25%,
"O=C(NC1CCC1)c1nn(C2CCCCC2)c2c1CCCCC2Cc1ccc(Cl)cc1 (centres unmarked) [Cpd 37, 8-(4-chloro-benzyl)-1-cyclohexyl-1,4,5,6,7,8-hexahydro-cycloheptapyrazole-3-carboxylic acid cyclobutylamide]",10%,15%,
"O=C(NC1CC1)c1nn(-c2ccc(Cl)cc2Cl)c2c1CCCCC2Cc1ccc(Cl)cc1 (centres unmarked) [Cpd 38, 8-(4-chloro-benzyl)-1-(2,4-dichloro-phenyl)-1,4,5,6,7,8-hexahydro-cycloheptapyrazole-3-carboxylic acid cyclopropylamide]",0%,39%,
"Cn1nc(C(=O)NC2CCC2)c2c1C(Cc1ccccc1Cl)CCCC2 (centres unmarked) [Cpd 39, 8-(2-chloro-benzyl)-1-methyl-1,4,5,6,7,8-hexahydro-cycloheptapyrazole-3-carboxylic acid cyclobutylamide]",30%,0%,
"O=C(NC1CCC1)c1nn(C2CCCCC2)c2c1CCCCC2Cc1cccc(F)c1 (centres unmarked) [Cpd 43, 1-cyclohexyl-8-(3-fluoro-benzyl)-1,4,5,6,7,8-hexahydro-cycloheptapyrazole-3-carboxylic acid cyclobutylamide]",42%,14%,
"CC12CCC(C1)C(C)(C)[C@H]2NC(=O)c1nn(C2CCCCC2)c2c1CCCCC2Cc1cccc(F)c1 (stereo partly drawn) [Cpd 44, 1-cyclohexyl-8-(3-fluoro-benzyl)-1,4,5,6,7,8-hexahydro-cycloheptapyrazole-3-carboxylic acid [(2S)-1,3,3-trimethyl-bicyclo[2.2.1]hept-2-yl]-amide]",,,"IC50 [1, 4]: 600 nM; inhibition at 1 µM [1, 5]: 75%; IC50 [2]: 200 nM; inhibition at 1 µM ([2]; read-out: CB1 receptor binding percent inhibition): 82%"
"CC(C)(C)OC(=O)N1CCC(NC(=O)c2nn(C3CCCCC3)c3c2CCCCC3Cc2cccc(F)c2)CC1 (centres unmarked) [Cpd 46, 4-{[1-cyclohexyl-8-(3-fluoro-benzyl)-1,4,5,6,7,8-hexahydro-cycloheptapyrazole-3-carbonyl]-amino}-piperidine-1-carboxylic acid tert-butyl ester]",0%,45%,
"CC12CCC(C1)C(C)(C)[C@H]2NC(=O)c1nn(Cc2ccccc2)c2c1CCCCC2c1ccccc1 (stereo partly drawn) [Cpd 47, 1-benzyl-8-phenyl-1,4,5,6,7,8-hexahydro-cycloheptapyrazole-3-carboxylic acid [(2S)-1,3,3-trimethyl-bicyclo[2.2.1]hept-2-yl]-amide]",,91%,"IC50 ([1]; Cannabinoid CB2 Receptor Binding IC50, calculated by linear regression from percent inhibition at various test concentrations): 30 nM; CB2 receptor binding percent inhibition [1, 5]: 94%; IC50 [2]: 100 nM"
"O=C(NC1CC1)c1nn(C2CCCCC2)c2c1CCCCC2Cc1cccc(F)c1 (centres unmarked) [Cpd 49, 1-cyclohexyl-8-(3-fluoro-benzyl)-1,4,5,6,7,8-hexahydro-cycloheptapyrazole-3-carboxylic acid cyclopropylamide]",9%,33%,
"O=C(NN1CCCCC1)c1nn(C2CCCCC2)c2c1CCCCC2Cc1cccc(F)c1 (centres unmarked) [Cpd 50, 1-cyclohexyl-8-(3-fluoro-benzyl)-1,4,5,6,7,8-hexahydro-cycloheptapyrazole-3-carboxylic acid piperidin-1-ylamide]",31%,32%,
"O=C(NC1CCCCC1)c1nn(C2CCCCC2)c2c1CCCCC2Cc1cccc(F)c1 (centres unmarked) [Cpd 51, 1-cyclohexyl-8-(3-fluoro-benzyl)-1,4,5,6,7,8-hexahydro-cycloheptapyrazole-3-carboxylic acid cyclohexylamide]",30%,36%,
